# Measurements from US6159988A, “Arylcycloalkyl derivatives, their production and their use” (Hoeschst Aktiengesellschaft, priority 1992, dated 2000).
# Where a name gives a salt, the structure may show the parent alone.
# Assays:
# [1] = tested on: IL-1; experiment: IL-1 release inhibition (Table 2); assay type: cell-based, human
# Method: 10 ml of human blood were carefully drawn from the antecubital vein using a syringe containing 1 ml of a solution of 3.8% sodium citrate. After dilution with 10 ml PM 16 (Serva, Heidelberg, FRG) and underlayering with 15 ml Lymphoprep® (Molter GmbH), the sample was centrifuged at 400×g for 40 min at 20° C. The mononuclear cells forming a white ring between lymphoprep and plasma were carefully aspirated by a syringe, diluted 1:1 with PM 16 and centrifuged again at 400×g for 10 min. […] was washed with 10 ml RPMI 1640 (Gibco, Berlin, FRG), containing additionally 300 mg/l L-glutamine, 25 mmol/l […] HEPES, 100 μg/ml streptomycin and 100 μg/ml penicillin. Finally, using a Coulter counter IT, the cell suspension was adjusted to 5×10^6 cells/ml. The cells consist of approx. 90% lymphocytes and 10% monocytes.
# 10 μl DMSO/water (1:10, v/v), containing the test compound, was added to 480 μl of a suspension, containing 5×10^6 mononuclear cells. The synthesis of IL-1 was stimulated by the addition of 10 μl DSMO/water (1:10, v/v), containing 0,5 μg LPS (Salmonella abortus equi, Sigma). After incubation at 37° C. for 18 hours, the samples were cooled to 0° C. and centrifuged for 1 min. in a table centrifuge. 25 μl aliquots of the supernatant were assayed for IL-1 alpha activity using a commercially available 125-J-IL-1-alpha radioimmunoassay Kit (Amersham/UK), and for IL-1 beta in a similar way using the specific test kit. Control experiments were performed as described without test compound, or with cycloheximide as a test compound.
# [2] = tested on: adjuvant arthritis in rats; experiment: Adjuvant-induced arthritis in rats; assay type: in vivo, rat (female Wistar); details: 30 mg/kg orally once every day for 12 days, compared to control
# [3] = tested on: Cotton Pellet Granuloma in Rats; experiment: Inhibition of carrageenin cotton pellet granuloma in rats; assay type: in vivo, rat (Wistar); details: 30 mg/kg, p.o. × 5
# Method: The implantation of carrageenin impregnated cotton pellets results in production of large, well-defined granuloma which are easily dissected. The potency of the compounds are assessed by measuring the reduction in granuloma tissue formation.
# Cotton wool pellets weighing 40 mg were used for sterilization.
# Pellets were dried overnight under a lamp. The pellets in the weight range of 42-44 mg were selected.
# Rats (in groups of 6, male or female, Charles River, Wistar, weighing 140-150 g) were anaesthetized with ether. The back was shaved and cleaned; swabbed with alcohol and one centimeter incision was made in the lower midback. A small channel was made bilaterally using a blunt forceps and one cotton pellet placed in each channel. Air from the incision was removed and the wound was stitched. […] Three hours after the administration of the last dose on day 7, animals were sacrificed. The pellets were removed by cutting the skin along the dorsal midline and peeling the skin away from the bodywall in both lateral directions. The pellets were weighed and then placed in drying oven at 140° C. overnight. The dry weights were then recorded and the amount of granuloma was assessed by subtracting the original pellet weight from wet weights and dry weights. The data was evaluated using the difference of left and right weights (cf. Table 4).
# [4] = tested on: experimental allergic encephalomyelitis (EAE) in guinea pigs; experiment: Experimental allergic encephalomyelitis (EAE) in guinea pigs; assay type: in vivo, guinea pig; details: 100 mg/kg p.o. once daily for 10 days
# Source text: This method permits the evaluation of the potential of the test compound in preventing the development of an autoimmune disorder leading to demyelination in the guinea pigs which can be equated to multiple sclerosis disease in humans. EAE is a reproducible chronic inflammatory autoimmune disease of the central nervous system in which an animal is immunized with either a homologous or heterologous extract of the whole brain and spinal cord, which contains the basic myelin protein together with Freund's Complete Adjuvant (FCA). A pathological condition would set in during ten to twenty days following immunization, which is characterized by weight loss, abnormal gait, mild to severe ataxia, paraparesis and moribund state leading to death. The potential of the test compounds to prevent this autoimmune condition was evaluated by observing the severity of the disease and mortality in comparison with untreated and hydrocortisone (standard drug) treated animals.
# Guinea pigs (200-300 g) were randomly distributed into groups of 10 each after receiving 0.075 ml of it brain and spinal cord extract in FCA intradermally on the back and 0.050 ml intrapedally in one hind paw. Compound 9 of Table 2 was administered orally at 3 mg/kg once daily for 10 days. The standard compound was administered 100 mg/kg p.o. once daily for 10 days. The weights of the animals were noted every day. Eight days after the induction of the disease, the animals were rated regularly for the severity of the disease and mortality was monitored.
# [5] = Homo sapiens, read-out: IL-1 Rel. Inhib.
smiles,measurement,setting,value
"COc1cc(OC)c(C2CCCCC2OC(=O)[C@H](C)N)c(O)c1C(=O)/C=C/c1cccc(Br)c1 (mixture of isomers) [Compound 7 of Table 2, trans-(+/-)-2-[4,6-Dimethoxy-2-hydroxy-3-(3-(3-bromophenyl)prop-2-(E)-enoyl)phenyl]cyclohexyl-2-(S)-amino propanoate]",inhibition at 1 µM,[1]; [5],35%
"COc1ccc(C(=O)/C=C/c2cccc(Br)c2)c(O)c1[C@@H]1CCCC[C@H]1O (racemic) [Compound 16 of Table 2, trans-(+/-)-2-[6-Methoxy-2-hydroxy-3-(3-(3-bromophenyl))prop-2-(E)-enoyl]phenylcyclohexanol]",IL-1 Rel. Inhib.,[1]; 11.6 μM,81%
"COc1cc(O)c(C(=O)/C=C/c2cccc(Br)c2)c(OC)c1[C@@H]1CCCC[C@H]1O (racemic) [Compound 17 of Table 2, trans-(+/-)-2-[2,6-Dimethoxy-4-hydroxy-3-(3-(3-bromophenyl))prop-2-(E)-enoyl]phenylcyclohexanol]",IL-1 Rel. Inhib.,[1]; 10.8 μM,71%
"COc1ccc([C@@H]2CCCC[C@H]2O)c(O)c1C(=O)/C=C/c1cccc(Br)c1.COc1ccc([C@@H]2CCCC[C@H]2O)c(O)c1C(=O)/C=C/c1cccc(Br)c1.O (racemic) [Compound 18 of Table 2, trans-(+/-)-2-[2-Hydroxy-4-methoxy-3-(3-(3-bromophenyl))prop-2-(E)-enoyl)phenylcyclohexanol hemihydrate]",IL-1 Rel. Inhib.,[1]; 5 μM,71%
COc1cc(OC)c([C@@H]2CCCC[C@H]2OC(C)=O)c(O)c1C(=O)/C=C/c1cccc(Br)c1 (relative stereo) [Compound 1 of Table 2],inhibition at 10 µM,[1]; [5],41%
COc1cc(OC)c([C@@H]2CCCC[C@H]2OC(=O)CN(C)C)c(O)c1C(=O)/C=C/c1cccc(Br)c1 (relative stereo) [Compound 2 of Table 2],inhibition at 17 µM,[1]; [5],50%
"COc1cc(OC)c([C@@H]2CCCC[C@H]2OC(=O)CN)c(O)c1C(=O)/C=C/c1cccc(Br)c1 (relative stereo) [Compound 3 of Table 2, trans-(+/-)-2-[4,6-Dimethoxy-2-hydroxy-3-(3-(3-bromophenyl)prop-2-(E)-enoyl)phenyl]cyclohexyl-2-amino acetate hydrochloride monohydrate]",inhibition at 17 µM,[1]; [5],63%
COc1cc(OC)c([C@@H]2CCCC[C@H]2OC(=O)CN2CCCCC2)c(O)c1C(=O)/C=C/c1cccc(Br)c1 (relative stereo) [Compound 4 of Table 2],inhibition at 16 µM,"[1]; Homo sapiens, 16 μM, read-out: IL-1 Rel. Inhib.",43%
COc1cc(OC)c([C@@H]2CCCC[C@H]2O)c(O)c1C(=O)/C=C/c1cccc(Br)c1 (relative stereo) [Compound 6 of Table 1],reduction in the uninjected paw volume,[2],very slight reduction
"COc1cc(OC)c([C@H]2CCCC[C@H]2O)c(O)c1C(=O)/C=C/c1cccc(Br)c1 (relative stereo) [Compound 11 of Table 2, cis-(+/-)-2-[4,6-Dimethoxy-2-hydroxy-3-(3-(3-bromophenyl))prop-2-(E)-enoyl]phenylcyclohexanol]",inhibition at 10.8 µM,"[1]; Homo sapiens, 10.8 μM, read-out: IL-1 Rel. Inhib.",90%
COc1cc(OC)c([C@@H]2CCCC[C@H]2O)c(O)c1C(=O)CCc1cccc(Br)c1 (relative stereo) [Compound 12 of Table 2],inhibition at 10.5 µM,"[1]; Homo sapiens, 10.5 μM, read-out: IL-1 Rel. Inhib.",26%
"COc1ccc(CCC(=O)c2c(OC)cc(OC)c([C@@H]3CCCC[C@H]3OC(=O)CN)c2O)cc1OC (relative stereo) [Compound 19 of Table 2, trans-(+/-)-1-[4,6-Dimethoxy-2-hydroxy-3-(2-(β-amino)acetoxy)cyclohexyl]phenyl-(3-(3,4-dimethoxy)phenyl)propanone hydrochloride monohydrate]",inhibition at 10 µM,[1]; [5],51%
COc1cc(OC)c([C@@H]2CCCC[C@H]2O)c(O)c1C(=O)/C=C/c1cccc(C)c1 (relative stereo) [Compound 20 of Table 2],inhibition at 10 µM,[1]; [5],49%
"COc1cc(OC)c([C@@H]2CCCC[C@H]2O)c(O)c1C(=O)/C=C/c1cc(C)ccc1C (relative stereo) [Compound 21 of Table 2, trans-(+/-)-2-[4,6-Dimethoxy-2-hydroxy-3-(3-(2,5-dimethylphenyl))prop-2-(E)-enoyl]phenylcyclohexanol monohydrate]",inhibition at 10 µM,[1]; [5],96%
COc1cc(/C=C/C(=O)c2c(OC)cc(OC)c([C@@H]3CCCC[C@H]3O)c2O)cc(Br)c1OC (relative stereo) [Compound 26 of Table 2],inhibition at 9.5 µM,"[1]; Homo sapiens, 9.5 μM, read-out: IL-1 Rel. Inhib.",50%
COc1cc(OC)c([C@@H]2CCCC[C@H]2O)c(O)c1C(=O)/C=C/c1cccc(N)c1 (relative stereo) [Compound 28 of Table 2],inhibition at 1 µM,[1]; [5],33%
"COc1cc(OC)c([C@@H]2CCCC[C@H]2OC(=O)CN)c(O)c1C(=O)/C=C/c1cccc(Br)c1 [Compound 5 of Table 2, trans-(-)-2-[4,6-Dimethoxy-2-hydroxy-3-(3-(3-bromophenyl)prop-2-(E)-enoyl)phenyl]cyclohexyl-2-amino acetate hydrochloride monohydrate]",inhibition at 1 µM,[1]; [5],95%
"COc1cc(OC)c([C@H]2CCCC[C@@H]2OC(=O)CN)c(O)c1C(=O)/C=C/c1cccc(Br)c1 [Compound 6 of Table 2, trans-(+)-2-[4,6-Dimethoxy-2-hydroxy-3-(3-(3-bromophenyl)prop-2-(E)-enoyl)phenyl]cyclohexyl-2-amino acetate hydrochloride monohydrate]",inhibition at 1 µM,[1]; [5],88%
"COc1cc(OC)c([C@@H]2CCCC[C@H]2O)c(O)c1C(=O)/C=C/c1cccc(Br)c1 [Compound 14 of Table 2, trans-(-)-2-[4,6-Dimethoxy-2-hydroxy-3-(3-(3-bromophenyl))prop-2-(E)-enoyl]phenylcyclohexanol]",inhibition at 0.3 µM,[1]; [5],50%
"COc1cc(OC)c([C@H]2CCCC[C@@H]2O)c(O)c1C(=O)/C=C/c1cccc(Br)c1 [Compound 15 of Table 2, trans-(+)-2-[4,6-Dimethoxy-2-hydroxy-3-(3-(3-bromophenyl))prop-2-(E)-enoyl]phenylcyclohexanol]",inhibition at 0.3 µM,[1]; [5],50%
COc1cc(OC)c(C2CCCCC2)c(O)c1C(=O)/C=C/c1ccc(Cl)cc1 [Compound 22 of Table 2],inhibition at 12 µM,"[1]; Homo sapiens, 12 μM, read-out: IL-1 Rel. Inhib.",30%
"C[C@]12CCC(=O)C=C1CC[C@@H]1[C@@H]2[C@@H](O)C[C@@]2(C)[C@H]1CC[C@]2(O)C(=O)CO [Hydrocortisone, reference compound]","% Inhibition of granuloma, Dry wt.",[3],37.5%
same,"% Inhibition of granuloma, Wet wt.",[3],20.5%
same,reduction in the mortality,[4],21%
